Data: patent US20070009509A1, “Antibody against nox1 polypeptide, method of diagnosing cancer with the use of nox1 gene and method of screening cancer growth inhibitor” (priority 2003, published 2007)

Legend:
K-Ras-NRK cells = assay: Morphology of K-Ras-NRK cells treated overnight with inhibitors; format: cell-based, rat; conditions: 20 μM DPI, 30 μM PD98059, 10 mM n-acetyl cysteine (data not shown), FIG. 13
Description: Diphenylene iodonium (DPI), a Nox1 inhibitor, was used to examine the influence of Nox1 gene expression on the morphologies of the cells transformed with mutant Ras. Namely, K-Ras-NRK cells and NRK cells were cultured overnight at 37° C. in a medium containing 20 μM DPI or 30 μM PD98059 under a 5% CO2-containing moisture environment to observe morphological changes.

[1] = test system: Nox1 expression in the H-Ras-NIH3T3 cells; assay: Control experiment: Nox1 expression in H-Ras-NIH3T3 cells; format: cell-based; conditions: wortmannin 100 nM; data not shown
[2] = test system: Nox1 expression in the K-Ras-NRK cells; assay: Nox1 expression in K-Ras-NRK cells by real-time quantitative polymerase chain reaction; format: cell-based, rat; conditions: PD98059 20 μM, 100 μM, treated for 12 hours; FIG. 1(a)
Description: At first, rat kidney (NRK) cells and K-Ras-NRK cells (Kirstein murine sarcoma virus-transformed NRK cells) were prepared. The K-Ras-NRK cells were purchased from ATCC.
The presence or absence of Nox1 expression in the rat kidney (NRK) cells and the K-Ras-NRK cells was initially detected by real-time quantitative polymerase chain reaction. The real-time quantitative polymerase chain reaction used a forward primer of SEQ ID NO: 15, a reverse primer of SEQ ID NO: 16, and a TaqMan MGB probe of SEQ ID NO: 17.
The real-time quantitative polymerase chain reaction was performed using ABI Prism 7700 (Applied Biosystems) under reaction conditions set to defaults. Analytical values were standardized using rRNA 18S.
(§1) A series of experiments were performed for analyzing the downstream region of a Ras signaling pathway of Nox1 gene expression elevated by mutant Ras gene. In Examples 1 and 2, the cells were treated for 12 hours with PD98059 (PD: 20 μM, 100 μM), an MAPKK inhibitor, to analyze Nox1 expression in the K-Ras-NRK cells and serum- and EGF-induced Nox1 expression by real-time quantitative polymerase chain reaction.

[3] = test system: Nox1 gene expression in NIH3T3 cells; assay: Serum- and EGF-induced Nox1 expression in NIH3T3 cells by real-time quantitative polymerase chain reaction; format: cell-based
Description: NIH3T3 cells cultured overnight under serum-free conditions were treated mitogeniclally with serum (30%) or 50 ng/ml epidermal growth factor (EGF) and then analyzed by real-time quantitative polymerase chain reaction. As a result, Nox1 gene expression was increased to 6 to 20 times within 12 hours from the initiation of the culture, as shown in FIGS. 1(c) and (d). That is, Nox1 gene expression is associated with factors that promote cell growth. This is consistent with the reports saying that both platelet-derived growth factor (PDGF) and angiotensin II induce superoxide formation and Nox1 gene expression in vascular smooth muscle cells (1 and 4).
as §1

[4] = test system: superoxide production in K-Ras-NRK cells; assay: Superoxide production by NBT reduction analysis; format: cell-based, rat; conditions: 40 units of superoxide dismutase, 37° C., 8 minutes
Description: The present inventors measured superoxide production by NBT reduction analysis using the transformed cells of Example 4 in order to evaluate the role of Nox1 in superoxide production induced by mutant Ras. In the present example, the method of Suh et al. was used in the NBT (nitroblue tetrazolium) analysis (1). Namely, 0.2 ml of a Hanks solution containing 0.25% NBT was prepared with or without 40 units of superoxide dismutase (SOD), a reactive oxygen-digesting enzyme, in which 2×10^5 cells were in turn suspended and treated at 37° C. for 8 minutes. The treated cells were separated by low-speed centrifugation and solubilized by the addition of 0.5 ml of pyridine. Absorbance at 510 nm was measured to quantify a decrease in NBT (extinction coefficient of 11,000/M/cm). The obtained data was shown in FIG. 6 with +/−s.e.m. from 3 measurements.

Compound: c1ccc2c(c1)[I+]c1ccccc1-2 [DPI, Diphenylene iodonium]
- morphological changes of K-Ras-NRK cells (K-Ras-NRK cells): transiently assumed a flat shape that was close to the shape of the NRK cells

Compound: CC(=O)N[C@@H](CS)C(=O)O [n-acetyl cysteine]
- morphological changes of K-Ras-NRK cells (K-Ras-NRK cells): transiently assumed a flat shape that was close to the shape of the NRK cells

Compound: COC[C@H]1OC(=O)c2coc3c2[C@@]1(C)C1=C(C3=O)[C@@H]2CCC(=O)[C@@]2(C)C[C@H]1OC(C)=O [wortmannin]
- increase in Nox1 expression in the H-Ras-NIH3T3 cells [1]: did not inhibit

Compound: COc1cccc(-c2cc(=O)c3ccccc3o2)c1N [PD98059]
- Nox1 expression in the K-Ras-NRK cells [2]: inhibited by the PD98059 concentration-dependently
- EGF-induced Nox1 expression ([3]; 20 μM PD98059, 50 ng/ml EGF, FIG. 1(d)): inhibited
- serum-induced Nox1 expression ([3]; 20 μM PD98059, serum (30%), FIG. 1(c)): inhibited
- morphological changes of K-Ras-NRK cells (K-Ras-NRK cells): such morphological changes were also observed

Compound: superoxide dismutase
- NBT reduction increased in K-Ras-NRK and K-Ras-NRK/neg-1 [4]: inhibited
